Experimental data as given in PMC11843613, “Further Optimization of the mGlu1 PAM VU6024578/BI02982816: Discovery and Characterization of VU6033685” (ACS Chemical Neuroscience, 2025).
Entries after “also recorded” stand apart in the source; their conditions may differ. Read-outs that look alike come from different tables or passages of the source.

Key:
[1] = Predicted hepatic clearance (dog); assay type: in vitro ADME
Description: (§1) at half log concentrations in DMSO were further diluted in assay buffer. The compounds or DMSO vehicle were added to cells and incubated for 2.5 min and an EC20 concentration of glutamate was added and incubated for 1 min. An ECmax concentration of glutamate was also added to cells that were incubated with DMSO vehicle to accurately calculate the EC20 calcium response. Data were normalized by subtracting the basal florescent peak before EC20 agonist addition from the maximal peak elicited by EC20 agonist and PAMs. Using GraphPad Prism 5.0, the concentration response curves were generated and the potencies of the mGlu1 PAMs were determined.
(§2) Plasma protein binding: The protein binding of each compound was determined in plasma via equilibrium dialysis employing RED Plates (ThermoFisher Scientific, Rochester, NY). Plasma was added to the 96 well plate containing test compound and mixed thoroughly for a final concentration of 5 µM. […]
(§3) Each compound was assayed in triplicate within the same 96-well plate. Fraction unbound was determined using the following equation […]
(§4) After a 5 min preincubation, the reaction was initiated by addition of NADPH (1 mM). […] The in vitro half-life (T 1/2, min, Eq. 1), intrinsic clearance (CLint, mL/min/kg, Eq. 2) and subsequent predicted hepatic clearance (CLhep, mL/min/kg, Eq. 3) was determined […]

[2] = Predicted hepatic clearance (c); assay type: in vitro ADME, c (presumably cynomolgus)
Description: as §1, §2, §3, §4

[3] = tested on: MK-801 disruption of novel object recognition in rats; assay: Rat MK-801-induced disruption of novel object recognition (NOR); assay type: in vivo
Description: mode (5.0 kV spray voltage). The calibration curves were constructed in blank plasma. All data were analyzed using AB Sciex Analyst software v1.5.1.
All animal study procedures were approved by the Institutional Animal Care and Use Committee and were conducted in accordance with the National Institutes of Health regulations of animal care covered in Principles of Laboratory Animal Care (National Institutes of Health). […]
GraphPad Prism (version 4.03, GraphPad, La Jolla, CA). […]
The animals are habituated to the novel object arenas for one day prior to testing. This is accomplished by placing the animal in the arena with no objects for 10 min and then placed back […]
into the home cage. The arena is then cleaned with 70% ethanol in between animals. The day of the test the animals are habituated to the dosing room for 2 hours. […]
The animals were then injected with MK-801 (0.075 mg/kg 1 ml/kg s.c.) and placed back in the homecage for 30 min. The animals are then placed into the arena with two identical familiar objects for ten minutes and then placed back into the home cage. The animals are then placed back into the arena with one of the familiar objects replaced with a novel object at 120 min after the familiar object exposure. The activity of the animals are recorded and the time spent exploring each of the objects is scored by a blinded observer. Recognition index is determined by subtracting the time spent with the […] divided by total time spent exploring. […]
NaCl, 26 mM NaHCO3, 11mM D-glucose, 2.5 mM KCl, 2.45mM CaCl2, 1.25mM NaH2PO4 and 1.2mM MgSO4 which was supplemented with 5mM sodium ascorbate. Slices were recovered for at least 1 hour prior to recording. During recording slices were perfused with aCSF in the absence of ascorbate and presence of […] DhβE to block nAChR-mediated dopamine release. […]
Briefly, a triangular voltage wave (-400 to +1000 mV at 300 V/sec) was applied to a fresh-cut carbon fiber electrode every 100 msec. […]

[4] = Three-day dose escalation toxicology study in mice; assay type: in vivo, mouse; details: for AUC at 3 day: in vivo
[5] = Rat tolerability in NOR and PO PK studies

## Cc1nc(C2CC2)ccc1CNC(=O)c1cc(-n2cccn2)ccc1Cl [compound 8]
[1]
  Predicted CLhep (d): 0.906 L/h/kg
[2]
  Predicted CLhep (c): 1.99 L/h/kg
[3]; rat PO 30 mg/kg
  free brain level as fold of rat in vitro EC50 at 30 mg/kg in NOR: ~5.2 fold
[3]; rat PO 30 mg/kg, 0.5% Natrasol/0.015% Tween 80 in water
  free brain level at 30 mg/kg in NOR: 0.579 µM
[3]; rat, PO, MK-801 0.075 mg/kg SC, one-way ANOVA p = 0.13
  reversal of MK-801 disruption of novel object recognition: dose-dependently reverse the deficits induced by MK-801; also recorded: dose-dependently reversed
[4]; mouse, three-day, 50 mg/kg, read-out: AUCss at 50 mg/kg
  AUC at 3 day: 5.5 µM·h
[4]; mouse, three-day, 200 mg/kg, read-out: AUCss at 200 mg/kg
  AUC at 3 day: 69.9 µM·h
[4]; mouse, three-day, high-dose group (printed 500 mg/kg), read-out: AUCss in high-dose group
  AUC at 3 day: 208 µM·h
[4]; mouse three-day study
  maximum tolerated dose (MTD): not reached
[4]; mouse, three-day, 50 mg/kg
  findings at 50 mg/kg: no test-item-related findings
[4]; mouse, three-day, 200 mg/kg
  findings at 200 mg/kg: some of the mice showed signs of weight loss, decreased motor activity, and swaying gait
[4]; mouse, three-day, high-dose group (printed 500 mg/kg)
  findings in high-dose group: several mice displayed weight loss, decreased motor activity, and swaying gait
[5]; rat PO
  adverse events at 6.2-fold rat EC50 free in brain: piloerection, slow movement, and reaction to stimuli
  duration of adverse events postdose: ~2 h
[5]; rat PO PK studies
  free brain concentration (fold rat EC50) that resulted in AEs: 6.2 fold
  free brain concentration that resulted in AEs: 0.664 µM
